In PubChem BioAssay AID1963966 (Molecular Pharmacology Branch, DTP, NCI, 2024):

Test system: 935938-334-R-J1-PDC spheroids with HUVEC/MSC, viability
Test: Anticancer human tumor 935938-334-R-J1-PDC patient-derived small intestine adenocarcinoma cell line growth inhibition [PI3K]
Conditions: for viability, T/C: stronger effect = lower value
Excerpt: Combinatorial screen of targeted agents with the PI3K inhibitors inavolisib, alpelisib, duvelisib, and copanlisib in multi-cell type tumor spheroids
A high-throughput screen of multi-cell type tumor spheroids was designed to identify active combinations of targeted small molecules and PI3K pathway inhibitors. Complex spheroids include a stromal component modeled by human endothelial cells (HUVEC) and fibroblasts modeled by human mesenchymal stem cells (MSCs). The concentration ranges selected for each drug and investigational agent were based upon clinically achievable concentrations if the clinical Cmax of the agent was known.
Compounds. The drugs and investigational agents: inavolisib (NSC800729), alpelisib (NSC765974), duvelisib (NSC772469), copanlisib (NSC816437), ipatasertib (NSC767898), afuresertib (NSC778305), talazoparib (NSC767125), sapanisertib (NSC764658), selumetinib (NSC741078), tovorafenib (DAY101, NSC766906), vemurafenib (NSC761431), ravoxertinib (NSC781343), sotorasib (NSC818433), MRTX1133 (NSC 836407), abemaciclib (NSC 768073), palbociclib (NSC758247), venetoclax (NSC 766270), SY5609 (NSC837396), enzalutamide (NSC755605), and darolutamide (NSC825331), were obtained from the National Cancer Institute (NCI) Developmental Therapeutics Program Chemical Repository. The FDA-approved anticancer drug set is available from the NCI Developmental Therapeutics Program. […] The stock solutions were prepared in dimethyl sulfoxide (DMSO, Sigma-Aldrich, St. Louis, MO, cat. D2650) at 800-fold the tested concentration and stored at -70 degrees C prior to their use. All drugs and investigational agents were tested over a range starting from a high concentration at or near the clinical Cmax and decreasing in half-log increments. If the clinical Cmax for an agent had not been determined, the highest concentration tested was 10 microM.
Cell Culture. All cells were maintained in an incubator at 37 degrees C and 5% CO2 with 95% humidity. The PDC lines were cultured according to standard operating procedures established by the NCI PDMR (https://pdmr.cancer.gov/sops/default.htm). All PDCs were thawed and cultured in Matrigel-coated flasks prepared with a working solution of 1X Ham's F-12 nutrient mix, without supplementation (Invitrogen, Waltham, MA, cat. 11765054), 100 U/mL penicillin-streptomycin (Invitrogen, cat. 15140122), and 2.5% Matrigel (Corning Inc., Corning, NY, cat. 354248) for the first three passages. The 354836-022-R-J1-PDC, 475296-252-R-J1-PDC, and 997726-040-R-J2-PDC lines were cultured in 6A media, which includes advanced DMEM/F-12 (Thermo Fisher Scientific, cat. 12634028), 10 mM HEPES (Thermo Fisher Scientific, cat. 15630080), 1X GlutaMAX supplement (Thermo Fisher Scientific, cat. 35050061), 0.1 mg/mL primocin (InvivoGen, San Diego, CA, cat. ant-pm-2), 10% defined fetal bovine serum, heat inactivated (HyClone Laboratories Inc., Logan, UT, cat. SH30070.03HI), 50% L-WRN conditioned media (ATCC, cat. CRL-3276), 1.25 mM N-Acetyl-L-cysteine (Sigma-Aldrich, cat. A9165), 10 mM nicotinamide (Sigma-Aldrich, cat. N0636), 1X B-27 supplement (Thermo Fisher Scientific, cat. 17504044), 1X N-2 supplement (Thermo Fisher Scientific, cat. 17502048), and 10 microM Y-27632 dihydrochloride (Tocris Bioscience, Bristol, United Kingdom, cat. 1254). The 624824-186-R-J2-PDC line was cultured in 6C/Colon 1B media, which includes all 6A media components plus 50 ng/mL human EGF recombinant protein (Thermo Fisher Scientific, cat. PHG0311). […]
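Note: compound exposure lasted seven days before viability was read.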
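Throughout, for viability, T/C: percent of vehicle DMSO treated spheroid viability so 100% = untreated.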

**Q.** Which results are given for `CC1(C)CCC(Nc2ncc(C(F)(F)F)c(-c3c[nH]c4c(P(C)(C)=O)c(C#N)ccc34)n2)CN1` (stereo not drawn) + CC(Nc1ccc2c(c1)OCCn1cc(N3C(=O)OCC3C(F)F)nc1-2)C(N)=O?
**A.** IC50 (curve of first compound, second compound 0.00316 µM): < 0.0316 µM; IC50 (curve of first compound, second compound 0.01 µM): < 0.0316 µM; IC50 (curve of first compound, second compound 0.0316 µM): < 0.0316 µM; IC50 (curve of first compound, second compound 0.1 µM): < 0.0316 µM; IC50 (curve of first compound, second compound 0.316 µM): < 0.0316 µM; IC50 (curve of first compound, second compound 1 µM): < 0.0316 µM; viability, T/C (second compound 0.00316 µM, first compound 0.0316 µM): 46.2%; viability, T/C (second compound 0.00316 µM, first compound 0.1 µM): 35%; viability, T/C (second compound 0.00316 µM, first compound 0.316 µM): 29.9%; viability, T/C (second compound 0.00316 µM, first compound 1 µM): 33.8%; viability, T/C (second compound 0.00316 µM, first compound 3.16 µM): 25.8%; viability, T/C (second compound 0.00316 µM, first compound 10 µM): 7.62%; viability, T/C (second compound 0.01 µM, first compound 0.0316 µM): 42.7%; viability, T/C (second compound 0.01 µM, first compound 0.1 µM): 36.3%; viability, T/C (second compound 0.01 µM, first compound 0.316 µM): 27.2%; viability, T/C (second compound 0.01 µM, first compound 1 µM): 28.6%; viability, T/C (second compound 0.01 µM, first compound 3.16 µM): 30.4%; viability, T/C (second compound 0.01 µM, first compound 10 µM): 5.01%; viability, T/C (second compound 0.0316 µM, first compound 0.0316 µM): 42.5%; viability, T/C (second compound 0.0316 µM, first compound 0.1 µM): 40.5%; viability, T/C (second compound 0.0316 µM, first compound 0.316 µM): 33.8%; viability, T/C (second compound 0.0316 µM, first compound 1 µM): 27.1%; viability, T/C (second compound 0.0316 µM, first compound 3.16 µM): 35.5%; viability, T/C (second compound 0.0316 µM, first compound 10 µM): 6.2%; viability, T/C (second compound 0.1 µM, first compound 0.0316 µM): 36.8%; viability, T/C (second compound 0.1 µM, first compound 0.1 µM): 39.5%; viability, T/C (second compound 0.1 µM, first compound 0.316 µM): 30%; viability, T/C (second compound 0.1 µM, first compound 1 µM): 29.6%; viability, T/C (second compound 0.1 µM, first compound 3.16 µM): 31.3%; viability, T/C (second compound 0.1 µM, first compound 10 µM): 4.61%; viability, T/C (second compound 0.316 µM, first compound 0.0316 µM): 37.5%; viability, T/C (second compound 0.316 µM, first compound 0.1 µM): 29.5%; viability, T/C (second compound 0.316 µM, first compound 0.316 µM): 27.2%; viability, T/C (second compound 0.316 µM, first compound 1 µM): 29.2%; viability, T/C (second compound 0.316 µM, first compound 3.16 µM): 23.1%; viability, T/C (second compound 0.316 µM, first compound 10 µM): 6.76%; viability, T/C (second compound 1 µM, first compound 0.0316 µM): 29.5%; viability, T/C (second compound 1 µM, first compound 0.1 µM): 24%; viability, T/C (second compound 1 µM, first compound 0.316 µM): 24.7%; viability, T/C (second compound 1 µM, first compound 1 µM): 22.9%; viability, T/C (second compound 1 µM, first compound 3.16 µM): 18.3%; viability, T/C (second compound 1 µM, first compound 10 µM): 3.56%

**Q.** What does the source list for `Cn1nccc1Nc1nccc(-c2ccn(C(CO)c3ccc(Cl)c(F)c3)c(=O)c2)n1` (stereo not drawn)?
**A.** viability, T/C (compound 0.0316 µM): 101% [middle of 4 runs]; viability, T/C (compound 0.316 µM): 68.3% [middle of 4 runs]; viability, T/C (compound 1 µM): 52.5% [middle of 4 runs]; viability, T/C (compound 3.16 µM): 43.4% [middle of 4 runs]; viability, T/C (compound 10 µM): 37% [middle of 4 runs]; IC50 (curve of compound): 1.06 µM [middle of 4 runs]
